Assay results as given in patent publication US7078059B2, “Treatment of bone diseases” (Shire Holdings AG, priority 2000, dated 2006).
Where “and” joins values, the source holds several entries; their conditions need not be identical. Identical values can stand only once. Entries after “also recorded” stand apart in the source; their conditions may differ.

Columns and labels:
[1] = tested on: mouse bone marrow derived osteoprogenitor cells; test: In vitro osteoblast differentiation assay (cellular alkaline phosphatase); type: cell-based; conditions: LA number = ng/ml lanthanum; for Effect on osteoblast differentiation, in words: lanthanum (III) ion = 100-15000 ng/ml, 17-estradiol 10^−10 M; for Relative specific activities of intracellular alkaline phosphatase, Mean ± SD / Relative specific activities of intracellular alkaline phosphatase, replicates 1-8 / Relative specific activities of intracellular alkaline phosphatase, replicates 1-4 / Relative specific activities or intracellular alkaline phosphatase, Mean ± SD / Relative specific activities or intracellular alkaline phosphatase, replicates 1-6: relative to mean of baseline group, 8 days; for Relative specific activities of intracellular alkaline phosphatase, Mean ± SD / Relative specific activities of intracellular alkaline phosphatase, replicates 1-8 / Relative specific activities of intracellular alkaline phosphatase, replicates 1-4 / Relative specific activities or intracellular alkaline phosphatase, Mean ± SD / Relative specific activities or intracellular alkaline phosphatase, replicates 1-6 / Combined results on osteoblast differentiation (relative specific ALP activity), Mean ± SD: Control = Baseline+10^−10 M 17-estradiol; for Relative specific activities or intracellular alkaline phosphatase, Mean ± SD / Relative specific activities or intracellular alkaline phosphatase, replicates 1-6: second osteoblast differentiation assay; for Combined results on osteoblast differentiation (relative specific ALP activity), Mean ± SD: tables 8-10 combined, number 18
Source text: We have established a culture model in which mouse bone marrow derived osteoprogenitor cells first proliferate and then differentiate to osteoblasts capable of forming mineralized bone nodules (Qu et al. 1998, Qu et al. 1999). We confirmed this by following the expression of several markers of the osteoblastic phenotype and by studying the morphology of cultures at light and electron microscopic level. […] Thus, this culture system fulfills requirements of an in vitro model useful for studying differentiation of osteoprogenitor cells into bone synthesizing osteoblasts. […] Animals were killed by cervical dislocation. Both femora were removed and the soft tissues were detached aseptically. Metaphyses from both ends were cut off and bone marrow cells were collected by flushing the diaphysis with culture medium: phenol red-free-α-modified essential medium (α-MEM (Gibco BRL, Paisley, UK)). […] The cells were cultured for 6 days and half of the media […] days. […] Cells were washed with warm PBS and adherent cells were detached using trypsin-EDTA. […] The test substances were added at the beginning of the secondary culture without estrogen, and every time when the medium was changed. The number of osteoblasts formed was determined by measuring cellular alkaline phosphatase (ALP) activity in the culture. […] Louis, Mo., USA), and overnight freezing. ALP activity was determined colorimetrically using p-nitrophenylphosphate as substrate at pH 9.7 and determining the optical density at 405 nm. In parallel, protein contents of the wells were determined by the BIO-RAD protein assay, and the specific ALP activity is expressed as units/mg protein. […] Osteoblast differentiation was determined by measuring cellular alkaline phosphatase (ALP) activities and total protein amounts from cell lysates. The ALP activities were divided with the corresponding protein amounts to obtain specific activities of ALP. The results are shown as relative specific activities obtained by dividing each individual value with the mean value of the baseline group.

[2] = tested on: osteoclasts cultured on bone slices; test: In vitro bone resorption assay (osteoclasts on bovine bone slices, CrossLaps); type: cell-based, rat; conditions: for Relative medium CrossLaps amounts per osteoclast, replicates 1-6 / Relative medium CrossLaps amounts per osteoclast, Mean ± SD: first bone resorption assay; for Relative medium CrossLaps amounts per osteoclast, replicates 1-6 / Relative medium CrossLaps amounts per osteoclast, Mean ± SD / Relative medium CrossLaps amounts per osteoclasts, Mean ± SD / Relative medium CrossLaps amounts per osteoclasts, replicates 1-6: relative to mean of baseline group, 72 hours; for Relative medium CrossLaps amounts per osteoclast, replicates 1-6: LA number = ng/ml lanthanum in culture medium; for Relative medium CrossLaps amounts per osteoclast, replicates 1-6 / Relative medium CrossLaps amounts per osteoclast, Mean ± SD / Relative medium CrossLaps amounts per osteoclasts, Mean ± SD / Relative medium CrossLaps amounts per osteoclasts, replicates 1-6 / Combined results on bone resorption (relative medium CrossLaps per osteoclast), Mean ± SD: Control = Baseline+10 nM bafilomycin Al; for Relative medium CrossLaps amounts per osteoclast, Mean ± SD / Relative medium CrossLaps amounts per osteoclasts, Mean ± SD / Relative medium CrossLaps amounts per osteoclasts, replicates 1-6 / Combined results on bone resorption (relative medium CrossLaps per osteoclast), Mean ± SD / Effect on bone resorption / bone resorbing activity of mature osteoclasts, in words: LA number = ng/ml lanthanum; for Relative medium CrossLaps amounts per osteoclasts, Mean ± SD / Relative medium CrossLaps amounts per osteoclasts, replicates 1-6: second bone resorption assay; for Combined results on bone resorption (relative medium CrossLaps per osteoclast), Mean ± SD: tables 1 and 2 combined, number 12; for Effect on bone resorption / bone resorbing activity of mature osteoclasts, in words: lanthanum (III) ion = any of the concentrations tested (100-15000 ng/ml), bafilomycin Al 10 nM
Source text: The method of osteoclast culture on bone slices was originally described by Boyde et al. (1984) and by Chambers et al. (1984). For cell culture, we used a method slightly modified from the original methods (Lakkakorpi et al. 1989, Lakkakorpi and Väänänen, 1991). The rate of bone resorption in the cultures was originally determined by counting the number of resorption pits on each bone or dentine slice using a microscope with phase contrast objectives (Sundquist et al. 1990). Later, the pits were visualized using Wheat Germ Agglutinin lectin that specifically binds to the resorbed area in bone (Selander et al. 1994), making it possible to quantify the total resorbed area using a microscope and computer-assisted image analysis system (Laitala and Väänänen 1994, Hentunen et al. 1995). We used a commercially available method (CrossLaps for cultures, Osteometer Biotech, Herlev, Denmark) to detect the amount of collagen cross-links released into the culture medium as an index of the bone resorption rate (Bagger et al., 1999).
The study protocol uses a method where osteoclasts are cultured on bone slices and allowed to resorb bone. The system is ideal for determining the effect of drug candidates on the bone resorbing activity of osteoclasts. Drug candidates are added into the cell cultures at the beginning of the culture period, and the osteoclasts allowed to resorb bone for 3 days. The amount of bone resorbed during the culture period is determined and compared to the amount of bone resorbed in control cultures (those cultured in the absence of drug candidates).
Transverse 0.1 mm thick slices of cortical bone were cut from the diaphysis of fresh bovine femurs (Atria Slaughterhouse, Oulu, Finland) using a low-speed diamond saw, cleaned by ultrasonication in multiple changes of sterile distilled water, and stored at 4° C. before use. Long bones were removed from 1-day-old rat pups killed by decapitation. […] The resulting suspension of dispersed cells and bone fragments was agitated using a plastic pipette. Larger fragments were allowed to sediment for a few seconds and the supernatant was seeded onto the bone slices pre-wetted in the medium. After a settling period of 30 minutes at 37° C., the bone slices were washed by dipping in fresh medium, and then transferred to wells in 24-well culture dishes containing osteoclast culture medium. The bone slices were incubated in a humidified atmosphere of 95% air and 5% carbon dioxide at 37° C. for 72 hours.
After the culture period, the amount of bone resorption was determined by measuring the amount of collagen cross-links released into the culture medium using a commercial kit (CrossLaps for cultures, Osteometer Biotech) according to the manufacturer s instructions. The number of osteoclasts in each culture was determined by microscopic counting of the amount of TRAP-positive multinuclear cells, and the results are given as the number of collagen cross-links released per one osteoclast.
In the bone resorption assay, the amount of medium CrossLaps (nM) released into the culture medium was determined and the number of osteoclasts in the corresponding cultures calculated. The medium CrossLaps amounts were divided with the osteoclast numbers in the corresponding cultures, and the results are given on Table 1 as relative medium CrossLaps amounts per osteoclasts. The relative values were obtained by dividing each individual value with the mean value of the baseline group.

[3] = first osteoblast differentiation assay
[4] = preliminary osteoblast differentiation assay

Structure (SMILES)	Effect on osteoblast differentiation, in words [1]	Relative specific activities of intracellular alkaline phosphatase, Mean ± SD [1, 3]	Relative specific activities of intracellular alkaline phosphatase, replicates 1-8 [1, 3]	Relative specific activities of intracellular alkaline phosphatase, Mean ± SD [1, 4]	Relative specific activities of intracellular alkaline phosphatase, replicates 1-4 [1, 4]	Relative specific activities or intracellular alkaline phosphatase, Mean ± SD [1]	Relative specific activities or intracellular alkaline phosphatase, replicates 1-6 [1]	Combined results on osteoblast differentiation (relative specific ALP activity), Mean ± SD [1]	Relative medium CrossLaps amounts per osteoclast, replicates 1-6 [2]	Relative medium CrossLaps amounts per osteoclast, Mean ± SD [2]	Relative medium CrossLaps amounts per osteoclasts, Mean ± SD [2]	Relative medium CrossLaps amounts per osteoclasts, replicates 1-6 [2]	Combined results on bone resorption (relative medium CrossLaps per osteoclast), Mean ± SD [2]	Effect on bone resorption / bone resorbing activity of mature osteoclasts, in words [2]
O.O.O.O.O=C([O-])[O-].O=C([O-])[O-].O=C([O-])[O-].[La+3].[La+3] [LA 100, lanthanum carbonate tetrahydrate]	activated osteoblast differentiation significantly; also recorded: activate both bone formation and osteoblast differentiation	1.05 ± 0.17	0.95 and 1.04 and 0.98	1.15 ± 0.13	0.98 and 1.29 and 1.19 and 1.12	1.14 ± 0.22	0.91 and 0.94 and 1.34 and 1.20 and 1.00 and 1.43	1.10 ± 0.18 (*)	0.57 and 0.56 and 1.13 and 0.78 and 0.71 (2×)	0.74 ± 0.21	0.74 ± 0.21	0.38 and 0.75 and 0.78 and 0.94 and 0.67 and 0.96	0.74 ± 0.20	
O.O.O.O.O=C([O-])[O-].O=C([O-])[O-].O=C([O-])[O-].[La+3].[La+3] [LA 1000, lanthanum carbonate tetrahydrate]	No significant response; also recorded: do not decrease the formulation of osteoblasts	0.94 ± 0.14	1.01 and 0.78 and 0.81	0.94 ± 0.19	0.69 and 1.13 and 0.92 and 1.01	0.88 ± 0.21	0.73 and 0.71 and 1.19 and 0.81 and 0.72 and 1.09	0.92 ± 0.17	1.14 and 1.09 and 0.89 and 1.76 and 1.07 and 1.11	1.18 ± 0.30	1.13 ± 0.51	0.70 and 0.59 and 1.69 and 1.40 and 1.68 and 0.73	1.15 ± 0.40	
O.O.O.O.O=C([O-])[O-].O=C([O-])[O-].O=C([O-])[O-].[La+3].[La+3] [LA 15000, lanthanum carbonate tetrahydrate]	inhibited	0.40 ± 0.07(***)	0.39 and 0.35 and 0.43	0.50 ± 0.03(***)	0.51 and 0.49 and 0.47 and 0.54	0.28 ± 0.07(***)	0.27 and 0.13 and 0.33 and 0.32 and 0.29 and 0.31	0.38 ± 0.11 (***)	0.57 (2×) and 0.58 and 0.96 and 2.53 and 1.11	1.05 ± 0.76	0.63 ± 0.29	0.29 and 1.08 and 0.62 and 0.87 and 0.47 and 0.45	0.84 ± 0.59	slight decrease
O.O.O.O.O=C([O-])[O-].O=C([O-])[O-].O=C([O-])[O-].[La+3].[La+3] [LA 5000, lanthanum carbonate tetrahydrate]	inhibited	0.53 ± 0.06(***)	0.54 and 0.59 and 0.55	0.47 ± 0.03(***)	0.42 and 0.46 and 0.50 and 0.48	0.41 ± 0.10(***)	0.31 and 0.51 (2×) and 0.49 and 0.28 and 0.40	0.48 ± 0.09 (***)	1.39 and 0.78 and 2.70 and 1.18 and 0.76 and 1.21	1.34 ± 0.71	1.20 ± 0.59	0.48 and 1.18 and 0.77 and 0.98 and 1.99 and 1.81	1.27 ± 0.63	
O.O.O.O.O=C([O-])[O-].O=C([O-])[O-].O=C([O-])[O-].[La+3].[La+3] [LA 500, lanthanum carbonate tetrahydrate]	No significant response; also recorded: do not decrease the formulation of osteoblasts	0.90 ± 0.14	0.95 and 0.96 and 0.62	1.01 ± 0.07	0.96 and 0.98 and 0.99 and 1.11	0.93 ± 0.14	0.88 and 0.89 and 1.10 and 1.09 and 0.75 and 0.90	0.94 ± 0.13	1.04 and 0.58 and 1.38 and 0.75 and 0.88 and 0.63	0.88 ± 0.30	0.88 ± 0.65	0.50 (2×) and 2.14 and 1.03 and 0.47 and 0.63	0.88 ± 0.48	dose-dependent inhibition of bone resorption
